US10189839B2, “Tricyclic imidazole compounds as inhibitors of tryptophan hydroxylase” (ACTELION PHARMACEUTICALS LTD, priority 2013, dated 2019)

Molecular target: T1, full length human TPH1 (Homo sapiens, UniProt P17752)
T1 construct: To generate the enzyme, full length human TPH1 is cloned into the plasmid pET20b(+); made in house; host or cells: E. coli
T1 sequence (P17752 1-444): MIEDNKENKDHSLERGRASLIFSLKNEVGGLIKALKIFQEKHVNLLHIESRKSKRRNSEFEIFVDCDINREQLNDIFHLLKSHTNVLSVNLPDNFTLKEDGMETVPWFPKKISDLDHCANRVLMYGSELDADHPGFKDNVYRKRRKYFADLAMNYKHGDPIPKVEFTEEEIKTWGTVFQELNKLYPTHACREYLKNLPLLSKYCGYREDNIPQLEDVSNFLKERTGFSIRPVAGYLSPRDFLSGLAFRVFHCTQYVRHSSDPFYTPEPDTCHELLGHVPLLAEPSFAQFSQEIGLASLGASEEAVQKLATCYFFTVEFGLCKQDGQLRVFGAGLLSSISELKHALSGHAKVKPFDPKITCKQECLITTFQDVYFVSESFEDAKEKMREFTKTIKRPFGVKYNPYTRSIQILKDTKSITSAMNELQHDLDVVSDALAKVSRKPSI
Assay: Biochemical in vitro assay using fluorescence readout (TPH1 enzyme activity)
Outline: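 E. coli-expressed full-length human TPH1 (40-80 nM), affinity- and size-exclusion-purified, incubated 60 min at 15° C. in 0.1M Tris-HCl pH 7.6 with 1 mM DTT, 0.2 mg/ml catalase, 100 μM 6-methyltetrahydropterine and 40 μM L-tryptophan. 5-Hydroxy-L-tryptophan read by fluorescence (ex 300/em 540 nm) after HClO4 quench; IC50 versus vehicle, mean where repeated.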

[1] = Table 1, mean where determined several times

Row | Structure (SMILES) | IC50 [1] | IC50 (Table 2)
1 | CCc1nc(C)ccc1OCC(=O)N1CCc2nc3n(c2C1c1ccc(C2CC2)cc1F)CCNC3 (centres unmarked) [Example 5.2.3, 1-(1-(4-cyclopropyl-2-fluorophenyl)-3,4,6,7,8,9-hexahydropyrido[4′,3′:4,5]imidazo[1,2-a]pyrazin-2(1H)-yl)-2-((2-ethyl-6-methylpyridin-3-yl)oxy)ethanone] | 54 nM | 
2 | O=C(COc1ccc(N2CCOCC2)cc1Cl)N1CCc2nc3n(c2C1c1ccc(C2CC2)cc1F)CCNC3 (centres unmarked) [Example 5.2.4, 2-(2-chloro-4-morpholinophenoxy)-1-(1-(4-cyclopropyl-2-fluorophenyl)-3,4,6,7,8,9-hexahydropyrido[4′,3′:4,5]imidazo[1,2-a]pyrazin-2(1H)-yl)ethanone] | 24 nM | 
3 | CC(=O)N1CCn2c(nc3c2C(c2ccc(C4CC4)cc2F)N(C(=O)COc2ccc(N4CCOCC4)cc2Cl)CC3)C1 (centres unmarked) [Example 5.2.5, 1-(7-acetyl-1-(4-cyclopropyl-2-fluorophenyl)-3,4,6,7,8,9-hexahydropyrido[4′,3′:4,5]imidazo[1,2-a]pyrazin-2(1H)-yl)-2-(2-chloro-4-morpholinophenoxy)ethanone] | 7 nM | 
4 | CCc1nc(C)ccc1OCC(=O)N1CCc2nc3n(c2C1c1ccc(C2CC2)cc1F)CCN(CC1CC1)C3 (centres unmarked) [Example 5.2.6, 1-(1-(4-cyclopropyl-2-fluorophenyl)-7-(cyclopropyl-methyl)-3,4,6,7,8,9-hexahydropyrido[4′,3′:4,5]imida-zo[1,2-a]pyrazin-2(1H)-yl)-2-((2-ethyl-6-methylpyridin-3-yl)oxy)ethanone] | 16 nM | 
5 | O=C(COc1ccc(N2CCOCC2)cc1Cl)N1CCc2nc3n(c2C1c1ccc(C2CC2)cc1F)CCN(CC1CC1)C3 (centres unmarked) [Example 5.2.7, 2-(2-chloro-4-morpholinophenoxy)-1-(1-(4-cyclopropyl-2-fluorophenyl)-7-(cyclopropylmethyl)-3,4,6,7,8,9-hexahydropyrido[4′,3′:4,5]imidazo[1,2-a]pyrazin-2(1H)-yl)ethanone] | 8 nM | 
6 | CC(=O)N1CCn2c(nc3c2C(c2ccc(C4CC4)cc2F)N(C(=O)COc2ccc(N4CCOCC4)nc2Cl)CC3)C1 (centres unmarked) [Example 5.2.8, 1-(7-acetyl-1-(4-cyclopropyl-2-fluorophenyl)-3,4,6,7,8,9-hexahydropyrido[4′,3′:4,5]imidazo[1,2-a]pyrazin-2(1H)-yl)-2-((2-chloro-6-morpholinopyridin-3-yl)oxy)ethanone] | 5 nM | 
7 | N#Cc1ccc(OCC(=O)N2CCc3nc4n(c3C2c2ccc(C3CC3)cc2F)CCNC4)c(Cl)c1 (centres unmarked) [Example 5.2.9, 3-chloro-4-(2-(1-(4-cyclopropyl-2-fluorophenyl)-3,4,6,7,8,9-hexahydropyrido[4′,3′:4,5]imidazo[1,2-a]pyrazin-2(1H)-yl)-2-oxoethoxy)benzonitrile] | 92 nM | 
8 | O=C(COc1cccnc1C(F)(F)F)N1CCc2nc3n(c2C1c1ccc(C2CC2)cc1F)CCNC3 (centres unmarked) [Example 5.2.10, 1-(1-(4-cyclopropyl-2-fluorophenyl)-3,4,6,7,8,9-hexahydropyrido[4′,3′:4,5]imidazo[1,2-a]pyrazin-2(1H)-yl)-2-((2-(trifluoromethyl)pyridin-3-yl)oxy)ethanone] | 50 nM | 
9 | N#Cc1ccc(OCC(=O)N2CCc3nc4n(c3C2c2ccc(C3CC3)cc2F)CCNC4)c(Cl)n1 (centres unmarked) [Example 5.2.11, 6-chloro-5-(2-(1-(4-cyclopropyl-2-fluorophenyl)-3,4,6,7,8,9-hexahydropyrido[4′,3′:4,5]imidazo[1,2-a]pyrazin-2(1H)-yl)-2-oxoethoxy)picolinonitrile] | 108 nM | 
10 | CC(=O)N1CCn2c(nc3c2C(c2ccc(C4CC4)cc2F)N(C(=O)COc2ccc(N4CC(F)(F)C4)nc2Cl)CC3)C1 (centres unmarked) [Example 5.2.12, 1-(7-acetyl-1-(4-cyclopropyl-2-fluorophenyl)-3,4,6,7,8,9-hexahydropyrido[4′,3′:4,5]imidazo[1,2-a]pyrazin-2(1H)-yl)-2-((2-chloro-6-(3,3-difluoroazetidin-1-yl)pyridin-3-yl)oxy)ethanone] | 6 nM | 
11 | CC(=O)N1CCn2c(nc3c2C(c2ccc(C4CC4)cc2F)N(C(=O)COc2ccc(C(=O)N(C)C)nc2Cl)CC3)C1 (centres unmarked) [Example 5.2.13, 5-(2-(7-acetyl-1-(4-cyclopropyl-2-fluorophenyl)-3,4,6,7,8,9-hexahydropyrido[4′,3′:4,5]imidazo[1,2-a]pyrazin-2(1H)-yl)-2-oxoethoxy)-6-chloro-N,N-dimethylpicolinamide] | 4 nM | 
12 | CC(=O)N1CCn2c(nc3c2C(c2ccc(C4CC4)cc2F)N(C(=O)COc2cccnc2Cl)CC3)C1 (centres unmarked) [Example 5.2.14, 1-(7-acetyl-1-(4-cyclopropyl-2-fluorophenyl)-3,4,6,7,8,9-hexahydropyrido[4′,3′:4,5]imidazo[1,2-a]pyrazin-2(1H)-yl)-2-((2-chloropyridin-3-yl)oxy)ethanone] | 28 nM | 
13 | CC(=O)N1CCn2c(nc3c2C(c2ccc(C4CC4)cc2F)N(C(=O)COc2cccnc2C(F)(F)F)CC3)C1 (centres unmarked) [Example 5.2.15, 1-(7-acetyl-1-(4-cyclopropyl-2-fluorophenyl)-3,4,6,7,8,9-hexahydropyrido[4′,3′:4,5]imidazo[1,2-a]pyrazin-2(1H)-yl)-2-((2-(trifluoromethyl)pyridin-3-yl)oxy)ethanone] | 10 nM | 
14 | CC(=O)N1CCn2c(nc3c2C(c2ccc(C4CC4)cc2F)N(C(=O)COc2cc(F)cnc2Cl)CC3)C1 (centres unmarked) [Example 5.2.16, 1-(7-acetyl-1-(4-cyclopropyl-2-fluorophenyl)-3,4,6,7,8,9-hexahydropyrido[4′,3′:4,5]imidazo[1,2-a]pyrazin-2(1H)-yl)-2-((2-chloro-5-fluoropyridin-3-yl)oxy)ethanone] | 25 nM | 
15 | CCc1nc(C)ccc1OCC(=O)N1CCc2nc3n(c2C1c1ccc(C2CC2)cc1F)CCN(C(C)=O)C3 (centres unmarked) [Example 5.2.17, 1-(7-acetyl-1-(4-cyclopropyl-2-fluorophenyl)-3,4,6,7,8,9-hexahydropyrido[4′,3′:4,5]imidazo[1,2-a]pyrazin-2(1H)-yl)-2-((2-ethyl-6-methylpyridin-3-yl)oxy)ethanone] | 11 nM | 
16 | CN(C)C(=O)c1csc(C2c3c(nc4n3CCNC4)CCN2C(=O)COc2ccc(N3CCOCC3)nc2Cl)c1 (centres unmarked) [Example 5.3.1, 5-(2-(2-((2-Chloro-6-morpholinopyridin-3-yl)oxy)acetyl)-1,2,3,4,6,7,8,9-octahydropyrido[4′,3′:4,5]imidazo[1,2-a]pyrazin-1-yl)-N,N-dimethylthiophene-3-carboxamide] |  | 94 nM
17 | CC(=O)N1CCn2c(nc3c2C(c2cc(C(=O)N(C)C)cs2)N(C(=O)COc2ccc(N4CCOCC4)nc2Cl)CC3)C1 (centres unmarked) [Example 5.3.2, 5-(7-Acetyl-2-(2-((2-chloro-6-morpholinopyridin-3-yl)oxy)acetyl)-1,2,3,4,6,7,8,9-octahydropyrido[4′,3′:4,5]imidazo[1,2-a]pyrazin-1-yl)-N,N-dimethylthiophene-3-carboxamide] |  | 35 nM
18 | CC(C)(C)OC(=O)N1CCn2c(nc3c2C(c2ncc(C4CC4)cc2F)N(C(=O)COc2ccc(N4CCOCC4)nc2Cl)CC3)C1 (centres unmarked) [Example 5.4.1, tert-butyl 2-(2-((2-chloro-6-morpholinopyridin-3-yl)oxy)acetyl)-1-(5-cyclopropyl-3-fluoropyridin-2-yl)-1,2,3,4,8,9-hexahydropyrido[4′,3′:4,5]imidazo[1,2-a]pyrazine-7(6H)-carboxylate] | 77 nM | 
19 | O=C(COc1cccnc1C(F)(F)F)N1CCc2nc3n(c2C1c1ncc(C2CC2)cc1F)CCNC3 (centres unmarked) [Example 5.4.2, 1-(1-(5-cyclopropyl-3-fluoropyridin-2-yl)-3,4,6,7,8,9-hexahydropyrido[4′,3′:4,5]imidazo[1,2-a]pyrazin-2(1H)-yl)-2-((2-(trifluoromethyl)pyridin-3-yl)oxy)ethanone] | 456 nM | 
20 | O=C(COc1ccc(N2CCOCC2)nc1Cl)N1CCc2nc3n(c2C1c1ncc(C2CC2)cc1F)CCNC3 (centres unmarked) [Example 5.4.3, 2-((2-chloro-6-morpholinopyridin-3-yl)oxy)-1-(1-(5-cyclopropyl-3-fluoropyridin-2-yl)-3,4,6,7,8,9-hexahydropyrido[4′,3′:4,5]imidazo[1,2-a]pyrazin-2(1H)-yl)ethanone] | 20 nM | 
21 | CCc1cc(F)ccc1OCC(=O)N1CCc2nc3n(c2C1c1ncc(C2CC2)cc1F)CCNC3 (centres unmarked) [Example 5.4.4, 1-(1-(5-cyclopropyl-3-fluoropyridin-2-yl)-3,4,6,7,8,9-hexahydropyrido[4′,3′:4,5]imidazo[1,2-a]pyrazin-2(1H)-yl)-2-(2-ethyl-4-fluorophenoxy)ethanone] | 329 nM | 
22 | CCc1cc(Cl)ccc1OCC(=O)N1CCc2nc3n(c2C1c1ncc(C2CC2)cc1F)CCNC3 (centres unmarked) [Example 5.4.5, 2-(4-chloro-2-ethylphenoxy)-1-(1-(5-cyclopropyl-3-fluoropyridin-2-yl)-3,4,6,7,8,9-hexahydropyrido[4′,3′:4,5]imidazo[1,2-a]pyrazin-2(1H)-yl)ethanone] | 143 nM | 
23 | CC(=O)N1CCn2c(nc3c2C(c2ncc(C4CC4)cc2F)N(C(=O)COc2ccc(N4CCOCC4)nc2Cl)CC3)C1 (centres unmarked) [Example 5.4.6, 1-(7-acetyl-1-(5-cyclopropyl-3-fluoropyridin-2-yl)-3,4,6,7,8,9-hexahydropyrido[4′,3′:4,5]imidazo[1,2-a]pyrazin-2(1H)-yl)-2-((2-chloro-6-morpholinopyridin-3-yl)oxy)ethanone] | 9 nM | 
